Laboratory results reported in patent US20220162191A1, “SMALL MOLECULE MODULATORS OF IL-17” (LEO PHARMA A/S, priority 2019, published 2022).

These compounds were tested against T1, human IL-17AA (Homo sapiens, UniProt Q16552) (assay: IL-8 release assay in human epithelial keratinocytes adult (HEKa)). Details: 3 ng/ml human IL-17AA + 10 ng/ml human TNFalpha, 68-72 h, IL-8 by HTRF, read-out: Rel EC50 L-8 release assay.
T1 construct: host or cells: HEK (human embryonic kidney) cells
T1 sequence (Q16552 24-155) 1: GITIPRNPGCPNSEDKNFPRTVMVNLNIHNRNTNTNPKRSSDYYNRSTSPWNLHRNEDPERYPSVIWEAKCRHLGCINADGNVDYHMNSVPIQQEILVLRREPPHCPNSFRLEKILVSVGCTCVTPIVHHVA
T1 sequence (Q16552 24-155) 2: T1 sequence (Q16552 24-155) 1
Type: cell-based
Outline: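 Adult human keratinocytes in Epilife with HKGS minus hydrocortisone, treated with compound then stimulated with final 3 ng/ml HEK-derived human IL-17AA plus 10 ng/ml TNF-alpha for 68–72 h at 37 °C; TNF-alpha alone defines 100% inhibition. Secreted IL-8 by HTRF; relative IC50 and Emax from four-parameter fits.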

`Cc1cnn(C)c1-c1ccc(NC(=O)[C@@H](NC(=O)C2(F)CC2)[C@@H]2CCCc3ccc(-c4ccnc(N5C[C@@H]6C[C@H]5CO6)c4)cc32)cc1` [Example 398, N-[(1S)-2-[4-(2,4-dimethylpyrazol-3-yl)anilino]-1-[(1R)-7-[2-[(1S,4S)-2-oxa-5-azabicyclo[2.2.1]heptan-5-yl]-4-pyridyl]tetralin-1-yl]-2-oxo-ethyl]-1-fluoro-cyclopropanecarboxamide] and `Cc1cnn(C)c1-c1ccc(NC(=O)[C@@H](NC(=O)C2(F)CC2)[C@@H]2CCCc3ccc(-c4ccnc(N5C[C@H]6C[C@@H]5CO6)c4)cc32)cc1` [Example 399, N-[(1S)-2-[4-(2,4-dimethylpyrazol-3-yl)anilino]-1-[(1R)-7-[2-[(1R,4R)-2-oxa-5-azabicyclo[2.2.1]heptan-5-yl]-4-pyridyl]tetralin-1-yl]-2-oxo-ethyl]-1-fluoro-cyclopropanecarboxamide] cannot be ordered by EC50: less than 100 nM for the first, less than 100 nM for the second.

`Cc1nccn1-c1ccc(NC(=O)[C@@H](NC(=O)C2(F)CC2)[C@@H]2CCCc3ccc(-c4ccnc(N5C[C@@H]6C[C@H]5CO6)c4)cc32)cc1` [Example 400, 1-fluoro-N-[(1S)-2-[4-(2-methylimidazol-1-yl)anilino]-1-[(1R)-7-[2-[(1S,4S)-2-oxa-5-azabicyclo[2.2.1]heptan-5-yl]-4-pyridyl]tetralin-1-yl]-2-oxo-ethyl]cyclopropanecarboxamide] and `Cc1nccn1-c1ccc(NC(=O)[C@@H](NC(=O)C2(F)CC2)[C@@H]2CCCc3ccc(-c4ccnc(N5C[C@H]6C[C@@H]5CO6)c4)cc32)cc1` [Example 401, 1-fluoro-N-[(1S)-2-[4-(2-methylimidazol-1-yl)anilino]-1-[(1R)-7-[2-[(1R,4R)-2-oxa-5-azabicyclo[2.2.1]heptan-5-yl]-4-pyridyl]tetralin-1-yl]-2-oxo-ethyl]cyclopropanecarboxamide] fall in the same range of EC50: 100 to 1000 nM for the first, 100 to 1000 nM for the second.

Compared with `Cc1nccn1-c1ccc(NC(=O)[C@@H](NC(=O)c2ccnn2C)[C@@H]2CCCc3ccc(-c4ccnc(N5C[C@@H]6C[C@H]5CO6)c4)cc32)cc1` [Example 402, 2-methyl-N-[(1S)-2-[4-(2-methylimidazol-1-yl)anilino]-1-[(1R)-7-[2-[(1S,4S)-2-oxa-5-azabicyclo[2.2.1]heptan-5-yl]-4-pyridyl]tetralin-1-yl]-2-oxo-ethyl]pyrazole-3-carboxamide], `Cc1nccn1-c1ccc(NC(=O)[C@@H](NC(=O)c2ccnn2C)[C@@H]2CCCc3ccc(-c4ccnc(N5C[C@H]6C[C@@H]5CO6)c4)cc32)cc1` [Example 403, 2-methyl-N-[(1S)-2-[4-(2-methylimidazol-1-yl)anilino]-1-[(1R)-7-[2-[(1R,4R)-2-oxa-5-azabicyclo[2.2.1]heptan-5-yl]-4-pyridyl]tetralin-1-yl]-2-oxo-ethyl]pyrazole-3-carboxamide] is higher in EC50: less than 100 nM for the first, 100 to 1000 nM for the second.

`Cn1cncc1-c1ccc(NC(=O)[C@@H](NC(=O)C2(F)CC2)[C@@H]2CCCc3ccc(-c4ccnc(N5C[C@H]6C[C@@H]5CO6)c4)cc32)cc1O` [Example 404, 1-fluoro-N-[(1S)-2-[3-hydroxy-4-(3-methylimidazol-4-yl)anilino]-1-[(1R)-7-[2-[(1R,4R)-2-oxa-5-azabicyclo[2.2.1]heptan-5-yl]-4-pyridyl]tetralin-1-yl]-2-oxo-ethyl]cyclopropanecarboxamide] and `Cn1cnnc1-c1ccc(NC(=O)[C@@H](NC(=O)C2(F)CC2)[C@@H]2CCCc3ccc(-c4ccnc(N5C[C@H]6C[C@@H]5CO6)c4)cc32)cc1` [Example 405, 1-fluoro-N-[(1S)-2-[4-(4-methyl-1,2,4-triazol-3-yl)anilino]-1-[(1R)-7-[2-[(1R,4R)-2-oxa-5-azabicyclo[2.2.1]heptan-5-yl]-4-pyridyl]tetralin-1-yl]-2-oxo-ethyl]cyclopropanecarboxamide] cannot be ordered by EC50: greater than 1000 nM for the first, greater than 1000 nM for the second.

`Cc1cc(-c2ccc3c(c2)[C@H]([C@H](NC(=O)C2(F)CC2)C(=O)Nc2ccc(-n4ccnc4C)cc2)CCC3)cn(C(C)C)c1=O` [Example 406, 1-fluoro-N-[(1S)-1-[(1R)-7-(1-isopropyl-5-methyl-6-oxo-3-pyridyl)tetralin-1-yl]-2-[4-(2-methylimidazol-1-yl)anilino]-2-oxo-ethyl]cyclopropanecarboxamide] and “N-[1-[[2-chloro-5-(1-(l-6-oxo-3- pyridyl)phenyl]methyl]-2-[4-(3-chloro- 1H-pyrazol-4-yl)anilino]-2-oxo-ethyl]-2- methyl-pyrazole-3-carboxamide [Example 180]” fall in the same range of EC50: 100 to 1000 nM for the first, 100 to 1000 nM for the second.

“N-[(1S)-2-[6-chloro-3-(1-isopropyl- 6-oxo-3-pyridyl)cyclohexa-2,4-dien- 1-yl]-1-[[4-(3-methylimidazol-4- yl)phenyl]carbamoyl]propyl]-2- methyl-pyrazole-3-carboxamide [Example 54]” was tested, and the EC50 was 100 to 1000 nM.
